Source: PMC11045757, “Group 3 medulloblastoma transcriptional networks collapse under domain specific EP300/CBP inhibition” (Nature Communications, 2024)
“And” between values parts separate entries of the source, which are not always exact repeats. Equal entries are not always repeated. Where two headings read alike, the source gives them in different places. One block for each compound: values may come before it.

Experiments:
[1] = system: MB002 group 3 medulloblastoma cells; assay: CellTiter-Glo dose-response growth assay; format: cell-based; conditions: for IC50: MB002, 72 h, day 3, read-out: d3 IC50 MB002; for normalized growth (fraction of control), replicate values: MB002, log10[compound]
Procedure, shortened: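 MB002 group 3 medulloblastoma cells were seeded in growth media at 500 cells/well in a 384-well plate, exposed to a range of compound concentrations, and incubated for the indicated time. Viability was then measured by CellTiter-Glo following the manufacturer's instructions, with plates read on an Envision 2104 microplate reader to produce dose-response growth curves.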

[2] = system: HDMB03 (HDMBO3) group 3 medulloblastoma cells; assay: CellTiter-Glo dose-response growth assay; format: cell-based; conditions: for IC50: Homo sapiens; for normalized growth (fraction of control), replicate values: HDMBO3, log10[compound]
Procedure, shortened: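 HDMB03 group 3 medulloblastoma cells were plated in growth media at 500 cells/well in a 384-well plate, treated with compound, and incubated for the noted timepoint. Viability was then measured by CellTiter-Glo following the manufacturer's instructions, with plates read on an Envision 2104 microplate reader to generate dose-response growth curves.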

HDMB03 (HDMBO3) cells = assay: ERCC spike-in RNAseq gene expression after 6 h treatment; format: cell-based; conditions: HDMBO3, replicate values, Supplementary Fig 6c
Description: (§1) First, we examined global changes in gene expression induced by drug treatment.
(§2) External RNA consortium control RNAs (ERCC, Ambion) were added directly to Trizol, based on cell number prior to RNA extraction. RNA samples were treated with DNAse I (Invitrogen) prior to recovery. Samples were obtained in biological triplicate. Total RNA was subjected to ribosomal RNA depletion prior to library preparation using the Truseq Stranded Total Library Prep Kit (Illumina) and sequencing on a Nextseq-500 (paired end, 100 bp reads).
(§3) Sequences were aligned using HISAT2 (version 2.1.0)[77] in paired-end mode with default parameters to build version hg19 of the human genome to which the sequences of the ERCC synthetic spike-in RNAs (http://tools.invitrogen.com/downloads/ERCC92.fa) had been added. Per-gene expression was quantified using htseq-count[78] with parameters “-i gene_id --stranded=reverse -f bam -m,” and version 87 of the canonical GRCh37 gene list from RefSeq to which ERCC coordinates were added. TPM-normalized (Transcripts Per Million) expression was then computed for each gene and synthetic ERCC spike-in RNA. Per-gene exon length was calculated across all exons of all isoforms of each gene. The standard TPM-normalization strategy is: normterm = sum of (read count * read length/exon length) across all genes. TPM = read count * read length/exon length * 1e6/normterm. We used a loess regression to normalize the TPM values across all samples of the batch, using only the spike-in values to fit the loess by the “affy” R package[79] with function loess.normalize. This function allowed us to perform loess regression on a matrix of TPM values and used the ERCC subset of data for fitting the loess. The output from this was a matrix of normalized TPM values controlled by ERCC spike-ins.
(§4) We used the elbow method[81] to determine the k value in k-means cluster analysis.
(§5) Dependency analysis was performed using the 22Q4 release of the DepMap dataset, comprising seven medulloblastoma cell lines: UW228, DAOY, ONS76, D458, D425, D283MED, D341MED. Dependency was defined as a Chronos gene effect score of <−0.5, and gene lists were filtered for dependency in >2/7 medulloblastoma cell lines. […] PANTHER was used to define gene annotations, with unknown annotations assigned using individual assessment using the Genecards.org resource.

MB002 cells = assay: as above; format: cell-based; conditions: MB002, replicate values, Supplementary Fig 6c
Description: as §1, §2, §3, §4, §5

BRDT(2) = target: T1, BRDT(2) (Homo sapiens, UniProt Q58F21); assay: BromoScan profiling (DiscoverX); format: binding; conditions: read-out: Percent Control BRDT(2)
T1 construct: BRDT(2); purchased Eurofins DiscoverX (BROMOscan)

BRD7 = target: T2, BRD7 (Homo sapiens, UniProt Q9NPI1); assay: BromoScan profiling (DiscoverX); format: binding; conditions: read-out: Percent Control BRD7
T2 construct: purchased Eurofins DiscoverX (BROMOscan)

BRPF1 = target: T3, BRPF1 (Homo sapiens, UniProt P55201); assay: BromoScan profiling (DiscoverX); format: binding; conditions: read-out: Percent Control BRPF1
T3 construct: purchased Eurofins DiscoverX (BROMOscan)

TAF1L(2) = target: T4, TAF1L(2) (Homo sapiens, UniProt Q8IZX4); assay: BromoScan profiling (DiscoverX); format: binding; conditions: read-out: Percent Control TAF1L(2)
T4 construct: TAF1L(2); purchased Eurofins DiscoverX (BROMOscan)

BRD9 = target: T5, BRD9 (Homo sapiens, UniProt Q9H8M2); assay: BromoScan profiling (DiscoverX); format: binding; conditions: read-out: Percent Control BRD9
T5 construct: purchased Eurofins DiscoverX (BROMOscan)

BRD3(2) = target: T6, BRD3(2) (Homo sapiens, UniProt Q15059); assay: BromoScan profiling (DiscoverX); format: binding; conditions: read-out: Percent Control BRD3(2)
T6 construct: BRD3(2); purchased Eurofins DiscoverX (BROMOscan)

SMARCA2 = target: T7, SMARCA2 (Homo sapiens, UniProt P51531); assay: BromoScan profiling (DiscoverX); format: binding; conditions: read-out: Percent Control SMARCA2
T7 construct: purchased Eurofins DiscoverX (BROMOscan)

[3] = system: c-MYC in HDMB03 (HDMBO3) cells; assay: Western blotting for c-MYC after 6 h treatment; format: cell-based; conditions: CCS1477 39 nM, A485 400 nM, JQ1 100 nM
Description: Line width indicates strength of known protein-protein interactions. Red indicates proteins involved in control of mRNA transcription/cell cycle, blue indicates proteins involved in RNA metabolism.
Western blotting protocols were as previously described[16],[69]. Briefly, cells growing in culture were lysed for whole-cell lysates using RIPA buffer, or for affinity pulldown using IP-lysis buffer (Pierce Biotechnology) per the manufacturer’s protocol. […] Equal amounts of protein were resolved by Western blotting using 4% to 12% Bis–Tris NuPAGE gels (Thermo Fisher Scientific) prior to transfer and immunoblotting using primary antibodies to EP300 (1:1000, Abcam ab10485), BRD4 (1:1000, Epicypher 13-2003), c-MYC (1:1000, Cell Signaling Technology #5605) or β-Actin (1:1000, Cell Signaling Technology #4967). Secondary antibodies were horseradish peroxidase–conjugated anti-rabbit or anti-mouse (1:5000, Santa Cruz Biotechnology, sc-2357, sc-358914), incubated prior to exposure to enhanced chemiluminescence reagents (GE Amersham). Densitometry was performed using Image Lab v6.1 (BioRad).

PCAF = target: T8, PCAF (Homo sapiens, UniProt Q92831); assay: BromoScan profiling (DiscoverX); format: binding; conditions: read-out: Percent Control PCAF
T8 construct: purchased Eurofins DiscoverX (BROMOscan)

WDR9(2) = target: T9, WDR9(2) (Homo sapiens, UniProt Q9NSI6); assay: BromoScan profiling (DiscoverX); format: binding; conditions: read-out: Percent Control WDR9(2)
T9 construct: WDR9(2); purchased Eurofins DiscoverX (BROMOscan)

CECR2 = target: T10, CECR2 (Homo sapiens, UniProt Q9BXF3); assay: BromoScan profiling (DiscoverX); format: binding; conditions: read-out: Percent Control CECR2
T10 construct: purchased Eurofins DiscoverX (BROMOscan)

[4] = HD-MB03, 72 h, day 3, read-out: d3 IC50 HDMBO3

T8 sequence (Q92831 whole entry): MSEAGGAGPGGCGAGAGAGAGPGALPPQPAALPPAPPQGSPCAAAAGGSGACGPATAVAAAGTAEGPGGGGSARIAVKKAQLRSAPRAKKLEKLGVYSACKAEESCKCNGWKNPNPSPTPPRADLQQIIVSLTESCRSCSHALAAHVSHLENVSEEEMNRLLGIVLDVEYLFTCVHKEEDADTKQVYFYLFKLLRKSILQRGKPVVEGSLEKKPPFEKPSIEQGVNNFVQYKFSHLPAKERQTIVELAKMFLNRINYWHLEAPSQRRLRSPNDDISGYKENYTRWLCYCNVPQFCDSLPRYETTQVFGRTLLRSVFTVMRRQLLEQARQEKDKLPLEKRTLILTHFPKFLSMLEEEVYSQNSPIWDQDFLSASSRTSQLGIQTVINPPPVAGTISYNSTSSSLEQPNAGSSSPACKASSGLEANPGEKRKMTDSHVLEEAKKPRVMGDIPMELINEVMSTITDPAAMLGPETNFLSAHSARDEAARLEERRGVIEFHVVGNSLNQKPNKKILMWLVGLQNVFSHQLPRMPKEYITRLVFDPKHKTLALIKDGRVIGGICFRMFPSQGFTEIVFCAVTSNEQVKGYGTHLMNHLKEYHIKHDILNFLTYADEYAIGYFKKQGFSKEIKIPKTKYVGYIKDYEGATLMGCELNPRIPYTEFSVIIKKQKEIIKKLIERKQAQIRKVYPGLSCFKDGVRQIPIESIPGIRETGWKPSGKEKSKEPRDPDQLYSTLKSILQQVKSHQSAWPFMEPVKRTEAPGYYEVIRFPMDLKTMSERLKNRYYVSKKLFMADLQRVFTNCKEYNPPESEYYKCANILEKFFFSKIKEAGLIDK
T7 sequence (P51531 whole entry): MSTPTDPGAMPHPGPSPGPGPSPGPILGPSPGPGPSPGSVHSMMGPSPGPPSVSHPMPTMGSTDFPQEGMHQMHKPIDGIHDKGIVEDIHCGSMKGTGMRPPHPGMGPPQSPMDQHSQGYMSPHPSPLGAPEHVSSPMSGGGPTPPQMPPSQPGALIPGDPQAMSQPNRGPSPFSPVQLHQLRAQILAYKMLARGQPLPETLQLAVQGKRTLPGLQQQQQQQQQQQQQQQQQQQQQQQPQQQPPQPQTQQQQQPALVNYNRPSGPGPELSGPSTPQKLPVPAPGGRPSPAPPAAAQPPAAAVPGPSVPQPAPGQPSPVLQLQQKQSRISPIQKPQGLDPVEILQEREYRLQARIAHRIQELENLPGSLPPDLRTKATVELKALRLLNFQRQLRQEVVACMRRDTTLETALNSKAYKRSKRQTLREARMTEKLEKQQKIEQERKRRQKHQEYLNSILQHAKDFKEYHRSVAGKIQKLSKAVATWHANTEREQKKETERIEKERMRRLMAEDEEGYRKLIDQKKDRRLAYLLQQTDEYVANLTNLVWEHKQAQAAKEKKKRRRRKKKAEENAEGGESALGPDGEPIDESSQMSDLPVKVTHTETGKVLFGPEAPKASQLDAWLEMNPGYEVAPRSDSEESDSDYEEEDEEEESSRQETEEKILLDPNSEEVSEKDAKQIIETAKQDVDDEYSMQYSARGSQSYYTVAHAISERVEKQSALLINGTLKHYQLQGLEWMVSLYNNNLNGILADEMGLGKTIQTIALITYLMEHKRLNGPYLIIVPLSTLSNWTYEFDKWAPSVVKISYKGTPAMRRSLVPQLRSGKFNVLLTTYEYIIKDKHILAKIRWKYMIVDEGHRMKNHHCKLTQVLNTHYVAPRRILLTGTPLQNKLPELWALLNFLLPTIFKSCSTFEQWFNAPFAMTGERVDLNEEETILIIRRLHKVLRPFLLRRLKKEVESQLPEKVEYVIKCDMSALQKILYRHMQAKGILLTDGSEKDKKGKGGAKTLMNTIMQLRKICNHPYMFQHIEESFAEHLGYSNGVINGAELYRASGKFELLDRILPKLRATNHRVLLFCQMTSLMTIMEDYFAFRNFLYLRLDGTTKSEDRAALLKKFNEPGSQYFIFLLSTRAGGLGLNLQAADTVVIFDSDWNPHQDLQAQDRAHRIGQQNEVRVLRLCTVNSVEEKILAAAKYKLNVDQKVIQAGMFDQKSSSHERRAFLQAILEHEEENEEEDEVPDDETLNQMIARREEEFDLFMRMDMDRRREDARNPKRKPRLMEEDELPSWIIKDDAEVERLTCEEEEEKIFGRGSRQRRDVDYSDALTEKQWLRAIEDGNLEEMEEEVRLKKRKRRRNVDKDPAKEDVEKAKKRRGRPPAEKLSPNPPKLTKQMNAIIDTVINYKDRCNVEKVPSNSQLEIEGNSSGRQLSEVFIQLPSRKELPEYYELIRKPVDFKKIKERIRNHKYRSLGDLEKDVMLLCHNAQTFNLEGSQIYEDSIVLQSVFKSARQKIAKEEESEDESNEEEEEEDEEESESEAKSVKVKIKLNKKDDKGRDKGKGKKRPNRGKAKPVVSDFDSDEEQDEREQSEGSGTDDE
T4 sequence (Q8IZX4 1517-1654 limits assumed): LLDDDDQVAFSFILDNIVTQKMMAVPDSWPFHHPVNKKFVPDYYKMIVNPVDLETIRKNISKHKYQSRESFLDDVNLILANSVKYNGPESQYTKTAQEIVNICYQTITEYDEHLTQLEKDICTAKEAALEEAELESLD
T2 sequence (Q9NPI1 whole entry): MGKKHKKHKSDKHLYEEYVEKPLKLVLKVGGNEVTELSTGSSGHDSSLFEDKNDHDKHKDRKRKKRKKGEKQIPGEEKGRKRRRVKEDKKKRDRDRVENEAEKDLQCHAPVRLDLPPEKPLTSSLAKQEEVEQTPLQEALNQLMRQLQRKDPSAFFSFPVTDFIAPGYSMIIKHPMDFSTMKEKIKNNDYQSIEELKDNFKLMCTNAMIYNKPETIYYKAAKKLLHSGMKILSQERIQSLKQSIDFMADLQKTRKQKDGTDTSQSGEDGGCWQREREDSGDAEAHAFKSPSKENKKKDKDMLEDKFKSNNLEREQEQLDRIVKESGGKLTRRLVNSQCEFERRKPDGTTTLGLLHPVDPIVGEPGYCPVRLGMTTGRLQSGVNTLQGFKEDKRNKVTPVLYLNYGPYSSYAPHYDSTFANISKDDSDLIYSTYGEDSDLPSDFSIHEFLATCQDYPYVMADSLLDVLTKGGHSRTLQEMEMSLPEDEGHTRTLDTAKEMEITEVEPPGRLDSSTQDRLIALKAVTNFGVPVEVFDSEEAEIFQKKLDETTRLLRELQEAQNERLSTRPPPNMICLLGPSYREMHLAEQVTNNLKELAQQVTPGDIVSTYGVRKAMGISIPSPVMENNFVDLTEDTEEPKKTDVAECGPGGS
T10 sequence (Q9BXF3 whole entry): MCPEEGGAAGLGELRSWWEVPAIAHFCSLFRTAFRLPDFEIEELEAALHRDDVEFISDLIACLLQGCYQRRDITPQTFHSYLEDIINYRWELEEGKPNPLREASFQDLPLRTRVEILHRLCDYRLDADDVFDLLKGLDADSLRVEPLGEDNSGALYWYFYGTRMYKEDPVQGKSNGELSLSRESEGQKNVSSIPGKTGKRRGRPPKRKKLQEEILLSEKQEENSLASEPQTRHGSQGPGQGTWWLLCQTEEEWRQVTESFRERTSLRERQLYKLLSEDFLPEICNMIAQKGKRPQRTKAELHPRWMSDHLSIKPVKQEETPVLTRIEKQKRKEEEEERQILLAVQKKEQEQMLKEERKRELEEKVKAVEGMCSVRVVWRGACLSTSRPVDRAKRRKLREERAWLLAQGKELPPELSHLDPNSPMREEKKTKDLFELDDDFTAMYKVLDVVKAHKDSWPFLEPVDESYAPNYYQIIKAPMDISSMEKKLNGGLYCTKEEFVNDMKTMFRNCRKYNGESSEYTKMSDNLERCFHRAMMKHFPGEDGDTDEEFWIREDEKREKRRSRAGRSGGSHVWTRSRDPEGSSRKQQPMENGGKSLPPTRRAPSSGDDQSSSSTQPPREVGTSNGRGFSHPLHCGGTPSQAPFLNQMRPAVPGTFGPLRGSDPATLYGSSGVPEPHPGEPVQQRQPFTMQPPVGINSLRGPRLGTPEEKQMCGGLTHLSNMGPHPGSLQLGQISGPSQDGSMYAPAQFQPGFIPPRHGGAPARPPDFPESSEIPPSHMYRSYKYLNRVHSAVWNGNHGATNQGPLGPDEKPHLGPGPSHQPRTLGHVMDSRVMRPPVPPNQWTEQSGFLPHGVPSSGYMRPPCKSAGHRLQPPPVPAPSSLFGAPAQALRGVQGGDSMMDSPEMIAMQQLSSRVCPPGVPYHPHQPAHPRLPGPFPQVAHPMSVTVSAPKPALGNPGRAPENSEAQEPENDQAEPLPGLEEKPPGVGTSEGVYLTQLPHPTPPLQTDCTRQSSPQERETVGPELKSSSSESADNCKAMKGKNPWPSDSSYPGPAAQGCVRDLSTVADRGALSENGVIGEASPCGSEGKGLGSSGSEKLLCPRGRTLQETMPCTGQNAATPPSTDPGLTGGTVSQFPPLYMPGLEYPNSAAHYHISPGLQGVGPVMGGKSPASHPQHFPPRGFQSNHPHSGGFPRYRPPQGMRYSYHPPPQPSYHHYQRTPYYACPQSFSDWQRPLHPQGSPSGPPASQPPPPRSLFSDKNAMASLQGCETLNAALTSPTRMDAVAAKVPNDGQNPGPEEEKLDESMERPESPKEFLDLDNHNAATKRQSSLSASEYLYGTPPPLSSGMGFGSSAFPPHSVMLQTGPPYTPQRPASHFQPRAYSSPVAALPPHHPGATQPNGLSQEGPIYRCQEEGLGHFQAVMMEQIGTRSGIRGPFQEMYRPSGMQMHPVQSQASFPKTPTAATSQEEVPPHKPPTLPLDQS
T6 sequence (Q15059 306-416 limits assumed): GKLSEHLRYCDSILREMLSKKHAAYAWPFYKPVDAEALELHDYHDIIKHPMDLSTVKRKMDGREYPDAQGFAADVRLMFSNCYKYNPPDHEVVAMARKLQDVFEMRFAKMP
T9 sequence (Q9NSI6 1310-1430 limits assumed): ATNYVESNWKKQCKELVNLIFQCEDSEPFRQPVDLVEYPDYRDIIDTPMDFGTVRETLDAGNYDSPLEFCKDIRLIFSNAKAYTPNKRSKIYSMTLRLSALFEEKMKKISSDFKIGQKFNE

IC50 [1]: 1970 nM
IC50 [2, 4]: 400 nM
SMILES: CNC(=O)Nc1ccc2c(c1)CCC21OC(=O)N(CC(=O)N(Cc2ccc(F)cc2)C(C)C(F)(F)F)C1=O (centres unmarked) [Compound A485]
Normalized MYC expression (HDMB03 (HDMBO3) cells): 0.9151 and 0.6386 and 0.4867
Normalized MYC expression (MB002 cells): 0.2801 and 0.5062 and 0.4843

remaining binding at 1 µM (BRDT(2)): 76%
remaining binding at 1 µM (BRD7): 64%
remaining binding at 1 µM (BRPF1): 31%
IC50 [1]: 1280 nM
IC50 [2, 4]: 39 nM
IC50 ([2]; HD-MB03, HDMBO3 G3MB cell growth, read-out: IC50 (nM) HDMBO3): 82 ± 32 nM
remaining binding at 1 µM (TAF1L(2)): 80%
remaining binding at 1 µM (BRD9): 39%
remaining binding at 1 µM (BRD3(2)): 66%
remaining binding at 1 µM (SMARCA2): 50%
remaining binding at 1 µM (PCAF): 88%
remaining binding at 1 µM (WDR9(2)): 14%
remaining binding at 1 µM (CECR2): 78%
SMILES: CO[C@H]1CC[C@H](n2c([C@@H]3CCCC(=O)N3c3ccc(F)c(F)c3)nc3cc(-c4c(C)noc4C)ccc32)CC1 [CCS1477]
normalized growth (fraction of control), replicate values ([1]; M = -4.7): 0.021 and 0.012 (2×) and 0.014 and 0.011 (7×) and 0.01 (2×) and 0.007 (2×) and 0.009 (3×)
normalized growth (fraction of control), replicate values ([1]; M = -5.21): 0.053 and 0.051 and 0.056 (2×) and 0.055 and 0.067 (4×) and 0.062 and 0.069 and 0.07 and 0.077 and 0.073 and 0.064 and 0.08 and 0.074 and 0.061
normalized growth (fraction of control), replicate values ([1]; M = -5.73): 0.176 and 0.2 and 0.173 (2×) and 0.221 and 0.192 and 0.209 and 0.163 and 0.174 and 0.198 and 0.167 and 0.182 and 0.161 and 0.164 and 0.153 and 0.149 and 0.147 and 0.172
normalized growth (fraction of control), replicate values ([1]; M = -6.25): 0.427 and 0.39 and 0.435 and 0.48 and 0.521 and 0.536 and 0.339 and 0.326 and 0.323 and 0.364 and 0.327 and 0.314 and 0.325 and 0.273 (2×) and 0.287 (2×) and 0.391
normalized growth (fraction of control), replicate values ([1]; M = -6.76): 0.571 and 0.619 and 0.593 and 0.57 (2×) and 0.624 and 0.745 and 0.543 and 0.601 and 0.505 and 0.54 and 0.511 and 0.346 and 0.471 and 0.506 and 0.447 and 0.463 and 0.363
normalized growth (fraction of control), replicate values ([1]; M = -7.28): 0.767 and 0.779 and 0.746 and 0.805 and 0.733 and 1.069 and 0.749 and 0.742 and 0.816 and 0.687
normalized growth (fraction of control), replicate values ([2]; M = -4.7): 0.042 and 0.025 and 0.028 and 0.036 and 0.035 and 0.041 and 0.053 (2×) and 0.048 and 0.054 and 0.043 and 0.052
normalized growth (fraction of control), replicate values ([2]; M = -5.21): 0.044 and 0.033 (2×) and 0.034 and 0.036 and 0.027 and 0.037 and 0.05 and 0.032 and 0.029 and 0.031 and 0.04
normalized growth (fraction of control), replicate values ([2]; M = -5.73): 0.036 and 0.028 and 0.032 and 0.05 and 0.027
normalized growth (fraction of control), replicate values ([2]; M = -6.25): 0.073 and 0.039 (2×) and 0.064 (2×) and 0.053 and 0.055 and 0.069 and 0.061 and 0.031 and 0.047 and 0.041
normalized growth (fraction of control), replicate values ([2]; M = -6.76): 0.122 and 0.123 and 0.093 and 0.099 and 0.112 and 0.108 and 0.113 and 0.078 and 0.09 and 0.094 and 0.079 and 0.066
normalized growth (fraction of control), replicate values ([2]; M = -7.28): 0.344 and 0.279 and 0.281 and 0.294 and 0.307 and 0.364 and 0.263 and 0.244 and 0.257 and 0.231 and 0.199 and 0.251
normalized growth (fraction of control), replicate values ([2]; M = -7.79): 0.653 and 0.647 and 0.598 and 0.634 and 0.582 and 0.697 and 0.7 and 0.556 and 0.819 and 0.469 and 0.726 and 0.588
normalized growth (fraction of control), replicate values ([2]; M = -8.31): 0.976 and 1.03 and 0.907 and 0.959 and 0.846 and 0.924 and 0.949 and 0.892 and 1.092 and 1.013 and 0.868
normalized growth (fraction of control), replicate values ([2]; M = -8.82): 1.054 and 0.933 and 1.006 and 0.821 and 1.079 and 1.062 and 1.187 and 0.91 and 1.023 (2×) and 0.934 and 0.969
Normalized MYC expression (HDMB03 (HDMBO3) cells): 0.5957 and 0.4799 and 0.4227
Normalized MYC expression (MB002 cells): 0.3944 and 0.5851 and 0.5892
MYC gene expression and protein levels [3]: loss of MYC gene expression and protein levels
